In US10232060B2, “CEST systems exhibiting a concentration independent responsiveness” (BRACCO IMAGING S.P.A., priority 2010, dated 2019):

Columns and labels:
Assay type in all cases: physicochemical
[1] = In vitro responsive properties towards temperature (Z-spectra); conditions: for resonance frequency of hydroxylic protons, less shifted stereoisomer / resonance frequency of hydroxylic protons, more shifted stereoisomer: 24 mM, pH 7.31
Experimental: A solution of Yb(III)HPDO3A (24 mM) having pH 7.31 was used for test.
The test was performed with a phantom containing solution of YbHPDO3A-tetramer in serum having different concentration, ranging from 0.26 to 8.4 mM., pH 7.4 and 298K. The dependence of the chemical shifts of the OH mobile protons (of the tetrameric complex stereoisomers) on the Temperature was tested by operating as formerly described for the monomeric compound.

[2] = Z-spectrum / NMR resonances of the exchangeable OH protons of NMR-distinguishable isomers in solution
Source text: (§1) CEST MR contrast enhancement have been determined on images acquired at 7 T on a Bruker Avance 300 spectrometer equipped with a Micro2.5 microimaging probe. A typical RARE spin-echo sequence (rare factor 64) with an echo time of 3.3 ms and a TR value of 5 s were used. An acquisition matrix of 64×64 with a square FOV of 10 mm was used. The whole sequence was preceded by a saturation scheme consisting of a continuous wave pulse 2 s long with a RF intensity of 24, 12, 6 μT. The Z-spectra were successively analyzed in order to determine the ratiometric value by using a software compiled in MATLAB platform operating, broadly, as disclosed in Development and validation of a smoothing-splines-based correction method for improving the analysis of CEST-MR images, Stancanello J Terreno E, Delli Castelli D, Cabella C, Uggeri F 1, Aime S.; CONTRAST MEDIA & MOLECULAR IMAGING Volume: 3, Issue: 4, Pages: 136-149, 2008; and in Methods for an improved detection of the MRI-CEST effect. Terreno E, Stancanello 3, Longo D, Delli Castelli D, Milone L, Sanders H M H F, Kok M B, Uggeri F, Aime S; CONTRAST MEDIA & MOLECULAR IMAGING; Volume: 4; Issue: 5; Pages: 237-247; 2009 that are all herein included by reference. The total paramagnetic concentration of the solution was determined through the measurement of magnetic susceptibility of the solution on a Bruker Avance 600 spectrometer (12T).

[3] = In vitro responsiveness towards pH (CEST MRI of phantom, ratiometric ST); conditions: in vitro solutions buffered at different pH
Source text: as §1, with “[…]. […]” for “(12T).”

Compound	sensitivity of the OH chemical shift to temperature (in words) [1]	chemical shift of OH proton, first diastereoisomer (from water) ([2]; pH=2 and 37° C.) [ppm]	chemical shift of OH proton, second diastereoisomer ([2]; pH=2 and 37° C.) [ppm]	chemical shift of hydroxyl group, less shifted NMR-distinguishable diastereoisomer ([2]; 20° C.) [ppm]	chemical shift of hydroxyl group, more shifted NMR-distinguishable diastereoisomer ([2]; 20° C.) [ppm]	responsiveness of the saturation transfer towards pH (in words) [3]	resonance frequency of hydroxylic protons, less shifted stereoisomer ([1]; 20° C.) [ppm]	resonance frequency of hydroxylic protons, more shifted stereoisomer ([1]; 20° C.) [ppm]	resonance frequency of hydroxylic protons, less shifted stereoisomer ([1]; 37° C.) [ppm]	resonance frequency of hydroxylic protons, more shifted stereoisomer ([1]; 37° C.) [ppm]
1,23-bis[4,7,10-triacetate[1,4,7,10-tetraazacyclododecan-(1)-yl]]-12,12′-bis[11[4,7,10-triacetate)-[1,4,7,10-tetraazacyclododecan-(1)-yl]]2-aza-3-oxo-5,8-dioxy-10-hydroxyundecanyl]2,22-dihydroxy-4,7,17,20-tetroxy-9,15-dioxo-10,14-diazatricosane tetra Ytterbium Complex (1:4) [YbHPDO3A-tetramer]	greatly increased	–	–	–	–	–	–	–	–	–
CC(O)CN1CCN(CC(=O)[O-])CCN(CC(=O)[O-])CCN(CC(=O)[O-])CC1.[Eu+3] (centres unmarked) [EuHPDO3A]	–	20.5	16.7	–	–	–	–	–	–	–
CC(O)CN1CCN(CC(=O)[O-])CCN(CC(=O)[O-])CCN(CC(=O)[O-])CC1.[Yb+3] (centres unmarked) [YbHPDO3A]	very sensitive to the temperature	–	–	72	99	is different	72	99	64.3	88
